How the values were obtained:
[1] = test system: Penicillium italicum; assay: Treatment of wounded mandarins inoculated with Penicillium italicum (dip, mould growth); format: in vivo; settings: 500 ppm natamycin, 2000 ppm procymidone or both, 20° C.
Experimental: Ten fresh, organic mandarins were used per treatment. The peel of each mandarin was wounded once using a cork borer according to the method described by de Lapeyre de Bellaire and Dubois (1987). Subsequently, each wound was inoculated with 10 μl of a Penicillium italicum suspension containing 1×10^4 of spores/ml. […] In addition, the antifungal compositions comprised 3.1% (w/w) beeswax, 0.76% (w/w) glycerol, 0.66% (w/w) polyoxyethylene sorbitan monostearate (Tween 60), 0.03% (w/w) methylhydroxyethylcellulose (MHEC), 0.02% (w/w) xanthan gum, 0.02% (w/w) anti-foaming agent, 0.15% (w/w) citric acid and 0.01% (w/w) potassium sorbate. The pH of the compositions was 4. A composition without natamycin or procymidone was used as control.
The treated mandarins were incubated in a closed box in the dark at 20° C. and assessed on mould growth after 6, 8, 10, 13, 15 and 18 days of incubation. The antifungal activity (in %) of the individual and combined active ingredients was determined by calculating the reduction in mould growth observed on the mandarins treated with the antifungal composition in comparison to the mould growth on the mandarins treated with the control composition according to the Colby method (Colby, 1967) described in Example 3.

[2] = test system: Penicillium italicum; assay: In vitro antifungal activity, 96-well microtiter plates; format: cell-based; settings: 0.63 ppm natamycin, 25° C.
Experimental: Subsequently, 100 μl of a Botrytis cinerea suspension prepared in PCB medium was used to inoculated each well with 2.5×10^3 spores/ml.
After incubation of the microtiter plates at 25° C., the in vitro antifungal activity (%) of the individual active ingredients was assessed by calculating the reduction in mould growth observed in the presence of the active ingredient in comparison to the mould growth observed in the absence of the active ingredient. The expected antifungal activity (E in %) of the active ingredient combination was calculated according to the Colby equation (Colby, 1967): […]
wherein X and Y are the observed antifungal activities (in %) of the individual active ingredients X and Y, respectively. If the observed antifungal activity (O in %) of the combination exceeds the expected antifungal activity (E in %) of the combination and the resulting synergy factor O/E is thus >1.0, the combined application of the active ingredients leads to a synergistic antifungal effect.
The experiment was conducted as described in Example 10, except for the fact that the following compositions were tested:
Furthermore, Penicillium italicum was used for inoculation. The antifungal activity (in %) of the individual and combined active ingredients was determined according to the method described in Example 10.

[3] = 5.0 ppm vinclozolin, 10 ppm procymidone, alone or natamycin + one of them, day 3
[4] = 50 ppm procymidone or both, day 5

Row | SMILES | Observed antifungal activity O (%) ([1]; day 6) | Observed antifungal activity O (%) ([1]; day 8) | Observed antifungal activity O (%) ([1]; day 10) | Observed antifungal activity O (%) ([1]; day 13) | Observed antifungal activity O (%) ([1]; day 15) | Observed antifungal activity O (%) ([1]; day 18) | Observed antifungal activity O (%) [2, 3] | Observed antifungal activity O (%) [2, 4]
1 | C[C@@H]1C/C=C/C=C/C=C/C=C/[C@H](O[C@@H]2O[C@H](C)[C@@H](O)[C@H](N)[C@@H]2O)C[C@@H]2O[C@](O)(C[C@@H](O)C[C@H]3O[C@@H]3/C=C/C(=O)O1)C[C@H](O)[C@H]2C(=O)O [Natamycin, natamycin] | 82% | 73% | 66% | 59% | 55% | 44% | 0% | 0%
2 | CC12CC1(C)C(=O)N(c1cc(Cl)cc(Cl)c1)C2=O (stereo not shown) [Procymidone, procymidone] | 0% | 0% | 0% | 0% | 0% | 0% | 0% | 0%

From patent US20130324489A1, “NEW ANTIFUNGAL COMPOSITIONS” (DSM IP ASSETS B.V., priority 2011, published 2013)
